Results taken from PubChem BioAssay AID1963976 (Molecular Pharmacology Branch, DTP, NCI, 2024).

System: 435261-313-R-J1-PDC tumor spheroid viability
Test: Anticancer human tumor 435261-313-R-J1-PDC patient-derived colon adenocarcinoma cell line growth inhibition [PI3K]
Details: spheroids with HUVEC and MSC; for IC50: curve of first compound; for viability, T/C: stronger effect = lower value
How it was run: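 Tumor cells grown as multi-cell spheroids with HUVEC endothelial cells and MSC fibroblast-like stroma were treated with targeted agents combined with inavolisib, alpelisib, duvelisib or copanlisib. Doses fell in half-log steps from near clinical Cmax, else from 10 microM. Viability was measured.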

[1] = second compound 0.0316 µM, first compound 0.0316 µM
[2] = second compound 0.0316 µM, first compound 0.1 µM
[3] = second compound 0.0316 µM, first compound 0.316 µM
[4] = second compound 0.0316 µM, first compound 1 µM
[5] = second compound 0.0316 µM, first compound 3.16 µM
[6] = second compound 0.0316 µM, first compound 10 µM
[7] = second compound 0.1 µM, first compound 0.0316 µM
[8] = second compound 0.1 µM, first compound 0.1 µM
[9] = second compound 0.1 µM, first compound 0.316 µM
[10] = second compound 0.1 µM, first compound 1 µM
[11] = second compound 0.1 µM, first compound 3.16 µM
[12] = second compound 0.1 µM, first compound 10 µM
[13] = second compound 0.316 µM, first compound 0.0316 µM
[14] = second compound 0.316 µM, first compound 0.1 µM
[15] = second compound 0.316 µM, first compound 0.316 µM
[16] = second compound 0.316 µM, first compound 1 µM
[17] = second compound 0.316 µM, first compound 3.16 µM
[18] = second compound 0.316 µM, first compound 10 µM
[19] = second compound 1 µM, first compound 0.0316 µM
[20] = second compound 1 µM, first compound 0.1 µM
[21] = second compound 1 µM, first compound 0.316 µM
[22] = second compound 1 µM, first compound 1 µM
[23] = second compound 1 µM, first compound 3.16 µM
[24] = second compound 1 µM, first compound 10 µM
[25] = second compound 3.16 µM, first compound 0.0316 µM
[26] = second compound 3.16 µM, first compound 0.1 µM
[27] = second compound 3.16 µM, first compound 0.316 µM
[28] = second compound 3.16 µM, first compound 1 µM
[29] = second compound 3.16 µM, first compound 3.16 µM
[30] = second compound 3.16 µM, first compound 10 µM
[31] = second compound 10 µM, first compound 0.0316 µM
[32] = second compound 10 µM, first compound 0.1 µM
[33] = second compound 10 µM, first compound 0.316 µM
[34] = second compound 10 µM, first compound 1 µM
[35] = second compound 10 µM, first compound 3.16 µM
[36] = second compound 10 µM, first compound 10 µM
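Also: spheroids exposed to compounds for 7 days.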

CC(C)NCC(C(=O)N1CCN(c2ncnc3c2C(C)CC3O)CC1)c1ccc(Cl)cc1 (stereo not drawn) + CC(Nc1ncnc2nc[nH]c12)c1cc2cccc(Cl)c2c(=O)n1-c1ccccc1 showed an IC50 (second compound 0.0316 µM) of 4130 nM, an IC50 (second compound 0.1 µM) of 6390 nM and an IC50 (second compound 0.316 µM) of 3720 nM. It also gave an IC50 (second compound 1 µM) of 4820 nM, an IC50 (second compound 3.16 µM) of 4510 nM and an IC50 (second compound 10 µM) of 775 nM. For the same compound, the viability, T/C [1] was 98.3%, the viability, T/C [2] was 102% and the viability, T/C [3] was 101%. The viability, T/C [4] was 76.7%, the viability, T/C [5] was 60% and the viability, T/C [6] was 24.4%. For the same compound, the viability, T/C [7] was 104%, the viability, T/C [8] was 88.9% and the viability, T/C [9] was 91.2%. The viability, T/C [10] was 102%, the viability, T/C [11] was 71.5% and the viability, T/C [12] was 36.3%. For the same compound, the viability, T/C [13] was 130%, the viability, T/C [14] was 88.7% and the viability, T/C [15] was 77.6%. For the same compound, the viability, T/C [16] was 67.7%, the viability, T/C [17] was 72.5% and the viability, T/C [18] was 26%. The viability, T/C [19] was 98.1%, the viability, T/C [20] was 93.9% and the viability, T/C [21] was 68.1%. For the same compound, the viability, T/C [22] was 80%, the viability, T/C [23] was 65.8% and the viability, T/C [24] was 30.6%. The viability, T/C [25] was 83.1%, the viability, T/C [26] was 84.8% and the viability, T/C [27] was 61.8%. It also gave a viability, T/C [28] of 74.2%, a viability, T/C [29] of 65.9% and a viability, T/C [30] of 18.4%. The viability, T/C [31] was 72.1%, the viability, T/C [32] was 69.6% and the viability, T/C [33] was 38.8%. The viability, T/C [34] was 59.3%, the viability, T/C [35] was 39.6% and the viability, T/C [36] was 14.9%.
Compound CCN1CCN(Cc2ccc(Nc3ncc(F)c(-c4cc(F)c5nc(C)n(C(C)C)c5c4)n3)nc2)CC1 + CC(Nc1ncnc2nc[nH]c12)c1cc2cccc(Cl)c2c(=O)n1-c1ccccc1 has an IC50 (second compound 0.0316 µM) of over 1000 nM, an IC50 (second compound 0.1 µM) of over 1000 nM and an IC50 (second compound 0.316 µM) of over 1000 nM. The IC50 (second compound 1 µM) was 222 nM, the IC50 (second compound 3.16 µM) was 20.8 nM and the IC50 (second compound 10 µM) was under 3.16 nM. The viability, T/C (second compound 0.0316 µM, first compound 0.00316 µM) was 97.8%, the viability, T/C (second compound 0.0316 µM, first compound 0.01 µM) was 81.8% and the viability, T/C [1] was 63.5%. The viability, T/C [2] was 60.1%, the viability, T/C [3] was 54.7% and the viability, T/C [4] was 51.6%. For the same compound, the viability, T/C (second compound 0.1 µM, first compound 0.00316 µM) was 73.2%, the viability, T/C (second compound 0.1 µM, first compound 0.01 µM) was 82.4% and the viability, T/C [7] was 99.5%. It also gave a viability, T/C [8] of 54.3%, a viability, T/C [9] of 48.6% and a viability, T/C [10] of 60.4%. The viability, T/C (second compound 0.316 µM, first compound 0.00316 µM) was 99.1%, the viability, T/C (second compound 0.316 µM, first compound 0.01 µM) was 110% and the viability, T/C [13] was 74.2%. For the same compound, the viability, T/C [14] was 61.9%, the viability, T/C [15] was 46.6% and the viability, T/C [16] was 54.5%. The viability, T/C (second compound 1 µM, first compound 0.00316 µM) was 96%, the viability, T/C (second compound 1 µM, first compound 0.01 µM) was 85.3% and the viability, T/C [19] was 59.7%. For the same compound, the viability, T/C [20] was 50.3%, the viability, T/C [21] was 44.9% and the viability, T/C [22] was 54.6%. For the same compound, the viability, T/C (second compound 3.16 µM, first compound 0.00316 µM) was 92.2%, the viability, T/C (second compound 3.16 µM, first compound 0.01 µM) was 62% and the viability, T/C [25] was 43.9%. It also gave a viability, T/C [26] of 36.1%, a viability, T/C [27] of 42.1% and a viability, T/C [28] of 37.7%. The viability, T/C (second compound 10 µM, first compound 0.00316 µM) was 43.8%, the viability, T/C (second compound 10 µM, first compound 0.01 µM) was 42.4% and the viability, T/C [31] was 32.5%. The viability, T/C [32] was 30.7%, the viability, T/C [33] was 30.4% and the viability, T/C [34] was 34.6%.
Cn1ncc(Cl)c1-c1cc(C(=O)NC(CN)Cc2cccc(F)c2)sc1Cl (stereo not drawn) + CC(Nc1ncnc2nc[nH]c12)c1cc2cccc(Cl)c2c(=O)n1-c1ccccc1 gave an IC50 (second compound 0.0316 µM) of 1400 nM, an IC50 (second compound 0.1 µM) of 527 nM and an IC50 (second compound 0.316 µM) of 565 nM. For the same compound, the IC50 (second compound 1 µM) was 863 nM, the IC50 (second compound 3.16 µM) was 679 nM and the IC50 (second compound 10 µM) was 155 nM. The viability, T/C [1] was 95.1%, the viability, T/C [2] was 74.4% and the viability, T/C [3] was 75.1%. It also gave a viability, T/C [4] of 63.1%, a viability, T/C [5] of 27.8% and a viability, T/C [6] of 14.2%. For the same compound, the viability, T/C [7] was 86.6%, the viability, T/C [8] was 96.7% and the viability, T/C [9] was 50%. The viability, T/C [10] was 39.9%, the viability, T/C [11] was 23.9% and the viability, T/C [12] was 9.05%. It also gave a viability, T/C [13] of 106%, a viability, T/C [14] of 58.1% and a viability, T/C [15] of 87.8%. It also gave a viability, T/C [16] of 26.8%, a viability, T/C [17] of 22.5% and a viability, T/C [18] of 10.6%. For the same compound, the viability, T/C [19] was 94.7%, the viability, T/C [20] was 82.9% and the viability, T/C [21] was 70.8%. It also gave a viability, T/C [22] of 47.7%, a viability, T/C [23] of 25.6% and a viability, T/C [24] of 15.7%. It also gave a viability, T/C [25] of 87.3%, a viability, T/C [26] of 81.8% and a viability, T/C [27] of 66.8%. For the same compound, the viability, T/C [28] was 40.5%, the viability, T/C [29] was 21.9% and the viability, T/C [30] was 9.23%. The viability, T/C [31] was 62.1%, the viability, T/C [32] was 62.8% and the viability, T/C [33] was 35%. For the same compound, the viability, T/C [34] was 27.5%, the viability, T/C [35] was 22.1% and the viability, T/C [36] was 6.29%.
For Cn1nccc1Nc1nccc(-c2ccn(C(CO)c3ccc(Cl)c(F)c3)c(=O)c2)n1 (stereo not drawn) + CC(Nc1ncnc2nc[nH]c12)c1cc2cccc(Cl)c2c(=O)n1-c1ccccc1, the IC50 (second compound 0.0316 µM) was 737 nM, the IC50 (second compound 0.1 µM) was 416 nM and the IC50 (second compound 0.316 µM) was 362 nM. The IC50 (second compound 1 µM) was 424 nM, the IC50 (second compound 3.16 µM) was 254 nM and the IC50 (second compound 10 µM) was 68.5 nM. It also gave a viability, T/C [1] of 83.5%, a viability, T/C [2] of 64.9% and a viability, T/C [3] of 84%. The viability, T/C [4] was 40.1%, the viability, T/C [5] was 28.7% and the viability, T/C [6] was 24.9%. It also gave a viability, T/C [7] of 75.4%, a viability, T/C [8] of 73.4% and a viability, T/C [9] of 46.5%. It also gave a viability, T/C [10] of 43.6%, a viability, T/C [11] of 25.8% and a viability, T/C [12] of 20.6%. It also gave a viability, T/C [13] of 77.9%, a viability, T/C [14] of 62.7% and a viability, T/C [15] of 53.6%. The viability, T/C [16] was 38%, the viability, T/C [17] was 28.4% and the viability, T/C [18] was 19.5%. The viability, T/C [19] was 71.5%, the viability, T/C [20] was 66.9% and the viability, T/C [21] was 46.3%. For the same compound, the viability, T/C [22] was 48.1%, the viability, T/C [23] was 26% and the viability, T/C [24] was 19.2%. The viability, T/C [25] was 77.1%, the viability, T/C [26] was 67.7% and the viability, T/C [27] was 42.1%. It also gave a viability, T/C [28] of 32.8%, a viability, T/C [29] of 23.5% and a viability, T/C [30] of 12.6%. The viability, T/C [31] was 58.1%, the viability, T/C [32] was 46.8% and the viability, T/C [33] was 28.8%. It also gave a viability, T/C [34] of 18.3%, a viability, T/C [35] of 16.7% and a viability, T/C [36] of 9.7%.
